Source: the METLIN SMRT retention time set (Domingo-Almenara et al. 2019)

Assay: gradient 5% acetonitrile 3 min, to 50% in 2 min, to 85% in 15 min, held 3 min, 100 µL/min
Settings: column: Zorbax Extend-C18 2.1 x 50 mm; eluents: water / acetonitrile, 0.1% formic acid
Summary of the method: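 In both positive and negative ionization mode, a quadrupole time-of-flight mass spectrometer coupled to HPLC analyzed pure standards run in mixtures of ~100 molecules. The Zorbax Extend-C18 column (2.1 × 50 mm, 1.8 μm) was operated at 100 μL/min with water and acetonitrile, each containing 0.1% formic acid. The dead volume was 40 μL and the dwell volume 900 μL. Retention time came from adduct peaks that were computationally picked and individually inspected by hand.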

RP-LC retention time [s] | Compound
1000 | O=[N+]([O-])c1ccc(-c2csc(N3CCOCC3)n2)cc1
1380 | Cc1nn(-c2nc(CC(=O)Nc3nc(-c4ccccc4)cs3)cs2)c(C)c1Cc1ccccc1
694 | CC1(C(=O)Nc2cccc(F)c2)CCCCC(=O)N1 (stereo not drawn)
813 | O=C(NCCOc1ccc(F)cc1)c1ccc(S(=O)(=O)N2CCCC2)cc1
642 | COCc1nncn1C1CN(C(=O)Cc2ccc(Cl)cc2)C1
956 | CCc1ccc(NC(=O)Cn2c(=O)n(-c3ccc(C)cc3)c(=O)c3c2cc(C)n3C)cc1
632 | O=C(CC(c1cccs1)N1Cc2ccccc2C1=O)N1CCN(c2ccccn2)CC1 (stereo not drawn)
1160 | COc1ccc(N2CCN(C(=O)c3ccc(-c4ccsc4)nc3)CC2)cc1
1010 | O=C(NC1(c2nc(-c3cccnc3)no2)CCCCC1)c1ccc(Br)cc1
712 | O=C(NCc1ccccn1)c1nnn(Cc2ccccc2Cl)c1-n1cccc1
837 | CCC1Oc2ccc(S(=O)(=O)N3CCC(C(=O)Nc4cccc(C)c4C)CC3)cc2NC1=O (stereo not drawn)
799 | CCc1ccc(NC(=O)C2CCc3nc(N(CC)CC)ncc3C2)cc1 (stereo not drawn)
1010 | Cc1ccccc1CNC(=O)C1(C)CCCN(C(=O)Nc2ccccc2Cl)C1 (stereo not drawn)
795 | Cn1c(C(=O)NCCCN2CCCCCC2)cc2c(-c3cccs3)nn(-c3ccccc3)c21
779 | COc1cccc(Cn2cc(S(=O)(=O)N3CCCC3)ccc2=O)c1
924 | CCc1nc2c(NC(=O)c3ccc(F)c(Cl)c3)cccn2n1
554 | O=C(c1cccc(Br)c1)N1CCN(CCn2cccn2)CC1
665 | COc1ccc(-c2cc3n(n2)CCCN(C(=O)c2cccnc2)C3)cc1
686 | Cc1ccc(C(=O)Nc2ccc(N3CCN(C4CCCC4)C3=O)nc2)cc1N1CCCC1=O
768 | CN(CC1CCOCC1)C(=O)Nc1ccccc1Br
1100 | Cc1cc(C)c(S(=O)(=O)Nc2cccc(C(F)(F)F)c2)c(C)c1
808 | Cc1cccc(NC(=O)C2(C)Oc3cccnc3N(C)C2=O)c1C (stereo not drawn)

RP-LC retention time [s] | Compound
821 | Nc1nc(N2CCN(c3ccccc3F)CC2)ncc1C(=O)Nc1ccccc1
920 | CCn1c(=O)c2ccccc2n(Cc2nc(-c3ccc(OC)c(OC)c3)no2)c1=O
696 | O=C(Nc1c(-c2ccccc2)nc2ccccn12)c1ccc(Cl)c([N+](=O)[O-])c1
919 | Cc1ccc2c(c1)cc(S(=O)(=O)c1ccccc1)c(=O)n2CC(=O)N1CCCCC1
966 | Cc1cc(-c2nnc(-c3ccccc3)o2)c(C)n1CC(=O)NCc1ccccc1Cl
806 | Cc1ccc(Nc2nc(C)cc(N3CCN(C(=O)Nc4cccc(C(F)(F)F)c4)CC3)n2)cc1
689 | c1ccc(CN2CCN(Cc3cnoc3-c3ccccc3)CC2)cc1
738 | Cc1nnc2c(=O)n(CC(=O)NCc3cccc(C(F)(F)F)c3)c3cccnc3n12
748 | NS(=O)(=O)c1ccc(CCNS(=O)(=O)c2cc(-c3ccno3)cs2)cc1
683 | Cc1ccc(CNC(=O)c2ccc3c(=O)n(Cc4ccccc4)c(N4CCCC4)nc3c2)o1
620 | Cc1ccc(F)c2c(=O)c3c([nH]c12)CCN(CC(=O)Nc1cccc(F)c1)C3
603 | Cc1cc(=O)n(CC(=O)Nc2cccc(F)c2)c(N)n1
816 | Cc1ccc(Nc2c(-c3ccc(N(C)C)cc3)nc3cccc(C)n23)cc1
736 | CC(=O)Nc1cccc(C(=O)NCCc2c[nH]c3ccc(Cl)cc23)c1
706 | Cc1ccc(CNC(=O)c2ccc(Cn3nc(N4CCN(c5ccccc5)CC4)ccc3=O)o2)o1
1040 | CCn1cc(-c2ccc(C)cc2)cc1C(=O)NC(C)C
1140 | COc1cccc(-c2nc(-c3cn(-c4cccc(Cl)c4)nn3)no2)c1
973 | Cc1cc(C)c(S(=O)(=O)N2CCN(Cc3cccc(F)c3)C3(CCOCC3)C2)c(C)c1
665 | CCCNC(=O)C1CCN(c2ccc(SCC(=O)Nc3ccc(F)c(F)c3)nn2)CC1
1150 | Cc1ccccc1-c1noc(CN2N=NC3C(=O)N(c4ccc(C(C)C)cc4)C(=O)C32)n1 (stereo not drawn)
702 | COc1ccc(CCNC(=O)C2CCc3nc(N4CCCCC4)ncc3C2)cc1OC (stereo not drawn)
1310 | Cc1ccc(C)c(OCc2nc(CC(=O)Nc3nc(-c4ccc(F)cc4)c(C)s3)cs2)c1

RP-LC retention time [s] | Compound
762 | Cc1ccc(-n2cc3c(N4CCCC(C(=O)NC5CCCCCC5)C4)ncnc3n2)cc1 (stereo not drawn)
592 | CCC(Oc1ccc(=O)n(-c2ccc(F)cc2)n1)C(=O)Nc1cc(OC)c(OC)c(OC)c1 (stereo not drawn)
1020 | Cc1ccc(S(=O)(=O)NC(C)c2nc(-c3ccc(-c4csc(C)n4)cc3)no2)cc1 (stereo not drawn)
570 | CCOCC(=O)NCCNC(=O)c1ccc(NC(C)=O)cc1
799 | Cc1ccc(C)c(NS(=O)(=O)c2cc(-c3[nH]ncc3C(=O)N3CCCCC3)oc2C)c1
756 | COc1cccc(CNC(=O)C2CCCN(c3nnc4ccc(Cl)cn34)C2)c1 (stereo not drawn)
1010 | CCC(=O)N1CCc2sc(S(=O)(=O)N3CCN(c4cccc(C)c4)CC3)cc2C1
831 | CNC(=O)c1cnn2c3c(cnc12)CCCCCC3
1110 | CN1C(=O)C2CCCCN2c2ccc(C(=O)N3CCC(Cc4ccccc4)CC3)cc21 (stereo not drawn)
636 | Cn1nnnc1C1CCCN(C(=O)C2CCC2)C1 (stereo not drawn)
696 | Cc1cc(C)c2c(n1)SCCN2C(=O)CCC(=O)NCc1ccc(Cl)cc1
903 | CCc1cccc(N2C(=O)CN(S(C)(=O)=O)CC2(C)C(=O)NCc2ccc(Cl)cc2)c1 (stereo not drawn)
690 | COc1ccc(NC(=O)N2CCC(c3noc(-c4cccnc4)n3)C2)cc1 (stereo not drawn)
827 | COc1cc(-c2noc(-c3cn(C)c4ccc(C)cc4c3=O)n2)cc(OC)c1OC
1020 | Cc1ccc(-c2nnc(SCC(=O)Nc3cccc(Cl)c3C)o2)cc1
655 | CCn1c(N2CCN(C(=O)Nc3ccccc3OC)CC2)nc2ccccc21
896 | Cc1cc(F)ccc1NC(=O)CN1C(=O)C2CCCCN2c2ccc(S(=O)(=O)N(C)C)cc21 (stereo not drawn)
930 | CSc1nc2ccc3nc(NC(=O)c4ccc([N+](=O)[O-])o4)sc3c2s1
864 | Cc1ccc(CNC(=O)C2(C)CN(S(C)(=O)=O)CC(=O)N2c2ccc(C)cc2C)cc1 (stereo not drawn)
756 | CCCNC(=O)C1CCN(c2nc3ccsc3c(=O)n2-c2ccc(C)cc2)CC1
689 | Cc1noc(C)c1CC(=O)NCc1cc(-c2ccc3c(c2)OCO3)on1
1080 | COc1c(C(=O)NC2CCCC2)sc2ccc(F)cc12

RP-LC retention time [s] | Compound
616 | CCc1cc(C(=O)N2CCN(CC)CC2)nc2cc(-c3ccco3)nn12
1020 | CCc1nc2sc(C(C)C)nn2c1S(=O)(=O)NC1CCCCC1
598 | O=C(NCC1CCN(c2cc(-c3ccncc3)[nH]n2)CC1)c1ccc2c(c1)OCO2
569 | O=C(Cc1csc(NC(=O)C2CCCC2)n1)NC1CCN(Cc2ccccc2)CC1
829 | COc1cc(NC(=O)Cn2nc([N+](=O)[O-])cc2C)c(OC)cc1Cl
1210 | Cc1ccc2c(c1)N(Cc1nc(-c3ccc(OC(F)(F)F)cc3)no1)C(=O)CO2
629 | O=C(CSc1ccc(N2CCCC(C(=O)NC3CC3)C2)nn1)Nc1ccc(F)cc1 (stereo not drawn)
1030 | COc1ccc(-c2nc(-c3cccc(-c4ccnn4C)c3)no2)c(OC)c1
679 | CCCNC(=O)C1CCN(C(=O)CCc2c(C)[nH]c(C(=O)OCC)c2C)CC1
556 | CCN(CC)CCNC(=O)c1cc2n(n1)CCCN(Cc1ccc(F)cc1)C2=O
819 | N#Cc1cc2c(OCC(O)CN3CCN(C(c4ccccc4)c4ccccc4)CC3)cccc2[nH]1 (stereo not drawn)
904 | Cc1nc(-c2ccc(C(=O)N3CCC(C)CC3)cc2)cs1
900 | Cc1c(C(=O)C(=O)N(C)Cc2ccccc2)c2ccccc2n1C
646 | O=C(CCC(=O)N1CC2CCCN2c2ccccc21)NCCN1CCCCCC1 (stereo not drawn)
822 | O=C(Nc1cnc(N2CCCCCC2)nc1)c1ccsc1
986 | CCCc1nc(-c2c(C)cc(C)nc2NC(=O)c2cccc(Cl)c2)no1
631 | CCN1C(=O)CN(C(=O)c2cccs2)CC12CCOCC2
1050 | CCN1C(=O)C2(CCN(S(=O)(=O)Cc3ccc(Cl)cc3)CC2)c2ccccc21
601 | COc1cccc(-c2nc(Cn3ccnc3)no2)c1
824 | CN1c2cc(C(=O)NC3CCCCC3)ccc2C(=O)N2CCCCC21 (stereo not drawn)
927 | O=C(NCCc1c[nH]c2ccc(Cl)cc12)c1cc2n(n1)CCCN(Cc1ccc(F)cc1)C2=O

Compound | RP-LC retention time [s]
O=C(NCc1ccc2c(c1)OCO2)c1c(O)c2cccnc2n(Cc2ccccc2)c1=O | 1290
